{"source": "paper PMC9664070", "about": "“The anticonvulsant phytocannabinoids CBGVA and CBDVA inhibit recombinant T-type channels” (Frontiers in Pharmacology, 2022)", "key": {"Cav3.2 [1]": {"system": "Cav3.2", "parameters": "method as in Ross et al., 2008", "conditions": "ref Ross et al., 2008; read-out: IC50, inhibition of peak Cav3.2 currents; cited from earlier work"}, "Cav3.1 [2]": {"system": "Cav3.1", "parameters": "method as in Ross et al., 2008", "conditions": "ref Ross et al., 2008; read-out: IC50, inhibition of peak Cav3.1 currents; cited from earlier work"}, "Cav3.3": {"molecular_target": "T1, Cav3.3 (Homo sapiens, UniProt Q9P0X4)", "T1 construct": "expressed in transfected cells; host or cells: HEK293 Flp-In T-REx", "T1 sequence (Q9P0X4 whole entry)": "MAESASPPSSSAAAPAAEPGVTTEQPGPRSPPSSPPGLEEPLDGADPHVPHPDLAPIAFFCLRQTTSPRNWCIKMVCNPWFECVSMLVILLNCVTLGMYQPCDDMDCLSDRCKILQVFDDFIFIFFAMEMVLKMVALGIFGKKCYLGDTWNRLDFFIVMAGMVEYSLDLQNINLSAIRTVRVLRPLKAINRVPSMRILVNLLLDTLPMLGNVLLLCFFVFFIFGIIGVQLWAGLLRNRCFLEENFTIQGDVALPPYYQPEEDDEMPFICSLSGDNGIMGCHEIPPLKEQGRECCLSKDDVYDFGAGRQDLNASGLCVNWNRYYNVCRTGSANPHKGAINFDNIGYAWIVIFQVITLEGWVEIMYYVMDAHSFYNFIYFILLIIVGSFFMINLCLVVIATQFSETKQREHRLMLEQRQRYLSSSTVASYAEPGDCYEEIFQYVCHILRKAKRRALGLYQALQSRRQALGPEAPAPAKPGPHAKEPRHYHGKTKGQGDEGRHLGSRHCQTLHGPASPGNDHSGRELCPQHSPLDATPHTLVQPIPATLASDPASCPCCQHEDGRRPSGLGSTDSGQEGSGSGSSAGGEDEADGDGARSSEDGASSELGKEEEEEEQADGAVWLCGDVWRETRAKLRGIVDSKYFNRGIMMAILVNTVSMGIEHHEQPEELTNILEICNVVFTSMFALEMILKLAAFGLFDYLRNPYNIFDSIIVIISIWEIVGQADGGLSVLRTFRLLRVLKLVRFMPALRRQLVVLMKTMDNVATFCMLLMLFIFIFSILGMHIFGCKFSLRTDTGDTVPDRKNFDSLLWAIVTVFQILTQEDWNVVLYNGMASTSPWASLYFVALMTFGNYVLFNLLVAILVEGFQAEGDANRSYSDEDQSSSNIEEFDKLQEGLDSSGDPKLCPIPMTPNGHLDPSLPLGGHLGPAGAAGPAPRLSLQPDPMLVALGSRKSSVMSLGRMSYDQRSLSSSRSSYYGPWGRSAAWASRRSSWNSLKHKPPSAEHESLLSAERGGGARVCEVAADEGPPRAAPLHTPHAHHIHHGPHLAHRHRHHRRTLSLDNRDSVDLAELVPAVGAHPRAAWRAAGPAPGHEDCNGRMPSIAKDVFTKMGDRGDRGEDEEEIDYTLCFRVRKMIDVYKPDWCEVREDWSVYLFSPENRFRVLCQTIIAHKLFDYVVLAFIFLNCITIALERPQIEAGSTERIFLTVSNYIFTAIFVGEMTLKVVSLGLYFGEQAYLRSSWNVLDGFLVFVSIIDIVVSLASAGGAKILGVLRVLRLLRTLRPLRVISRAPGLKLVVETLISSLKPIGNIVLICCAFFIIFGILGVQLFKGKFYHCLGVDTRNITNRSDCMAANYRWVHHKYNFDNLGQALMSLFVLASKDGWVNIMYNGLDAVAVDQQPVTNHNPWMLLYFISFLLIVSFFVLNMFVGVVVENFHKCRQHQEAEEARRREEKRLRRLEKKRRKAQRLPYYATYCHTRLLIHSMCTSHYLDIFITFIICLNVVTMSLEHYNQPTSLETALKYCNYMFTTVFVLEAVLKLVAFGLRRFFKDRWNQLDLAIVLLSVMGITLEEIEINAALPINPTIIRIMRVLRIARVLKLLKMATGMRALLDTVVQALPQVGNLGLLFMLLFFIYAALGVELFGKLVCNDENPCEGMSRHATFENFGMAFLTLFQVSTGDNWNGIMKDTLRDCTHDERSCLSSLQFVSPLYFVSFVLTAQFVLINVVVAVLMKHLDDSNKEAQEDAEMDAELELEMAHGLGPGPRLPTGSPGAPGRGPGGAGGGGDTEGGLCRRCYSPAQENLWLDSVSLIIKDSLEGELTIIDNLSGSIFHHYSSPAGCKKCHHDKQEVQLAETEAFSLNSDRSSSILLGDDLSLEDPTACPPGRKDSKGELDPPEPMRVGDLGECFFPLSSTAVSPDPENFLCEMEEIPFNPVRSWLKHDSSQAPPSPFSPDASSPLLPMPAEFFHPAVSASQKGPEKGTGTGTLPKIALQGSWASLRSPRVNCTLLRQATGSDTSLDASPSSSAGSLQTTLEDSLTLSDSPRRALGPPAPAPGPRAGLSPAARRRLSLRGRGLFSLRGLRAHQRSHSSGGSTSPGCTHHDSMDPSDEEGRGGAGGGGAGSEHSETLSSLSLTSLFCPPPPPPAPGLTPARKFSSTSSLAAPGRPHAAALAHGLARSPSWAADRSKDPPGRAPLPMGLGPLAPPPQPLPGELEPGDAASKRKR", "experiment": "FLIPR calcium 5 assay, inhibition of 10 mM Ca-induced fluorescence", "assay_type": "cell-based", "conditions": "10 µM compound, HEK293 cells, mean ± SEM", "description": "(§1) Calcium 5 dye (Molecular Devices, United States ) was used to investigate compound activities at T-type calcium channels using Flexstation III. HEK293 cells overexpressing Cav3.1, Cav 3.2, and Cav 3.3 cells were resuspended in Leibovitz’s L-15 media containing 1% FBS, 1% P/S and 15 mM glucose. 90 µl of the resuspended cells (120,000 cells/well) were plated in a black-walled, 96-well microplate (Corning, NY, United States ) and incubated overnight in humidified air at 37°C. Channel expression was induced with tetracycline (2 μg/ml, Sigma-Aldrich) at plating. On the day of the assay, 90 µl of HBSS containing 5% Calcium dye (bulk kit) and 2.5 mM probenecid (Invitrogen, United States ) was added to each well and incubated for 1 h at 37°C. Change in fluorescence was measured in a FlexStation III plate reader every 2 s (ʎexcitation = 485 nm, ʎemission = 525 nm) for the duration of the experiment at 37°C. After 2 min baseline recording, drugs (20 µL) were added and read for 5 min, followed by 10 mM CaCl2 (20 µl) and read for a further 3 min.\n(§2) Unless otherwise stated, five independent experiments were performed for each condition, with each experiment conducted in duplicate. For the calcium assay, change in fluorescence by 10 mM Ca in the presence of drugs was normalised to change in fluorescence caused by 10 mM Ca in the presence of vehicle only to allow for comparison. In the Alphascreen assay, results were normalised to EC80 of ML-186 after subtraction of basal ERK phosphorylation (presence of a vehicle and 0.2% DMSO) to allow for easy comparison between phytocannabinoid activities. We fitted all concentration-response curves to a 4-parameter sigmoidal inhibitory response curve in GraphPad Prism (Version 6 GraphPad Software Inc., CA, United States) to derive IC50 and Emax values. All statistical analyses were conducted with GraphPad Prism. Two-tailed, unpaired t-tests were used to compare two data points and one-way ANOVA for more than two data points with Tukey post-hoc analysis. p-values < 0.05 were considered statistically significant.\n(§3) Our investigation of T-type channels began with a single-point screen, as described by [Bladen et al. (2021)]. We screened the inhibitory effect of 10 µM phytocannabinoids on the change in fluorescence elicited by the addition of 10 mM Ca^2+ in cells expressing Cav3.1, Cav3.2 or Cav3.3 channels ([Xie et al., 2007]; [Bladen et al., 2021])."}, "Cav3.2 [3]": {"molecular_target": "T2, Cav3.2 (Homo sapiens, UniProt O95180)", "T2 construct": "expressed in transfected cells; host or cells: HEK293 Flp-In T-REx", "experiment": "FLIPR calcium 5 assay, inhibition of 10 mM Ca-induced fluorescence", "assay_type": "cell-based", "description": "as §1, §2, §3"}, "Cav3.1 [4]": {"molecular_target": "T3, Cav3.1 (Homo sapiens, UniProt O43497)", "T3 construct": "expressed in transfected cells; host or cells: HEK293 Flp-In T-REx", "T3 sequence (O43497 whole entry)": "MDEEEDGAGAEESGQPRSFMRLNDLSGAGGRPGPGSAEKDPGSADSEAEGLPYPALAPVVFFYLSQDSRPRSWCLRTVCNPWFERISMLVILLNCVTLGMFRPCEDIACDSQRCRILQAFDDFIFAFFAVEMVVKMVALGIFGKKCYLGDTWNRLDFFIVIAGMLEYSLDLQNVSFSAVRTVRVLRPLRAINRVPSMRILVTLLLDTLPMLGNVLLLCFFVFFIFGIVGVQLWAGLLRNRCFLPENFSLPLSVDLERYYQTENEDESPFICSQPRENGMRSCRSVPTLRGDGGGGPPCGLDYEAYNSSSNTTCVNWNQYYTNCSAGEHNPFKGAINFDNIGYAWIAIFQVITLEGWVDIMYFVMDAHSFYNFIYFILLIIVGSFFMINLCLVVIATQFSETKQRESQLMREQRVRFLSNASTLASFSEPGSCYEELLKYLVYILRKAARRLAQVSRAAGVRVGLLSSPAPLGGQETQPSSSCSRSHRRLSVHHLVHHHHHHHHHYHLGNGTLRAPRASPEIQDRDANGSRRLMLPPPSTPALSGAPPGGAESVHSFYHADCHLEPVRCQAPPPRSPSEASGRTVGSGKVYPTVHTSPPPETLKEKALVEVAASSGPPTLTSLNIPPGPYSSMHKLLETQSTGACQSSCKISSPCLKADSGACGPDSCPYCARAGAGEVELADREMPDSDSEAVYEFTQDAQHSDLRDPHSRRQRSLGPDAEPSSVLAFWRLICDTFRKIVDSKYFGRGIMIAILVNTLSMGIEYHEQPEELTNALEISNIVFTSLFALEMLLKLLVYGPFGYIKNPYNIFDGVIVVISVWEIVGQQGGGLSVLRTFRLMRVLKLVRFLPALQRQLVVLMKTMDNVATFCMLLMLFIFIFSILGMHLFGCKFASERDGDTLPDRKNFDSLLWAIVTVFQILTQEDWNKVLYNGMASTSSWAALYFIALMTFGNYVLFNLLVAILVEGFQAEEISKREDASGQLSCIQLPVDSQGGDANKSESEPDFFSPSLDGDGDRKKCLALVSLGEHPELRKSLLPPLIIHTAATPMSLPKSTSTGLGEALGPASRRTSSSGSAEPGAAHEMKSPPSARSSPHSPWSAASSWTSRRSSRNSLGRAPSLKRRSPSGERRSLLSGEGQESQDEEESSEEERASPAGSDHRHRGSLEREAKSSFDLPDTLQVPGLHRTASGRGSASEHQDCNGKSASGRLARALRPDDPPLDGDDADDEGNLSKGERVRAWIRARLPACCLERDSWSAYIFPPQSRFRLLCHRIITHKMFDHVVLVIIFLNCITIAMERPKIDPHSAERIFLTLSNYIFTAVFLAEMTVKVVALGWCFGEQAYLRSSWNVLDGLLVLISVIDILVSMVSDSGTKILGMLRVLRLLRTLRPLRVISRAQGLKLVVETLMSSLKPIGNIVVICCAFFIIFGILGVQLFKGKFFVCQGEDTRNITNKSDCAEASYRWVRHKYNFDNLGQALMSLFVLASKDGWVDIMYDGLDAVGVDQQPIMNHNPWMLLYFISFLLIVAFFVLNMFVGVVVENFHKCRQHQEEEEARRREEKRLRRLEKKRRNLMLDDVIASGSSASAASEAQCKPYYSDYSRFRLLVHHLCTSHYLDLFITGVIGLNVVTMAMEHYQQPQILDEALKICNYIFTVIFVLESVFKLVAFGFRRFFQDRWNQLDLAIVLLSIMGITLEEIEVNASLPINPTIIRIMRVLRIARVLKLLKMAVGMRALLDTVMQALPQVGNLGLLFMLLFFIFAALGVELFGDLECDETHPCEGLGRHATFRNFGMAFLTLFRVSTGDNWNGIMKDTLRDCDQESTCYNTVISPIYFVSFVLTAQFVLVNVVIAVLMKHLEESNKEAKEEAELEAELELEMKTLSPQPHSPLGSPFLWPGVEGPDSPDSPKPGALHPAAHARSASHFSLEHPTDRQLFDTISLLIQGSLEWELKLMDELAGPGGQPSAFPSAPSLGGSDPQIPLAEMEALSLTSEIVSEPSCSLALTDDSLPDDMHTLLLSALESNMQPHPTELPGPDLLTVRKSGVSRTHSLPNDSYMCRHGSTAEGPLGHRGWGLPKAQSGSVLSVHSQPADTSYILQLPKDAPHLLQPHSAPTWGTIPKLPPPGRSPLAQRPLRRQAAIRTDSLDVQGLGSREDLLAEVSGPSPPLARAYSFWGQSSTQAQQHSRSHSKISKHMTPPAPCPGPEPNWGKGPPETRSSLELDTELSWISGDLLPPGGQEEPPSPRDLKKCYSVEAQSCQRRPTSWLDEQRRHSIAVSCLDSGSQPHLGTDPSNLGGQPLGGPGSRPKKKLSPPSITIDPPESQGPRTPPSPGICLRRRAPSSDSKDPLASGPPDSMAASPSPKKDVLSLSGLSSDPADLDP", "experiment": "FLIPR calcium 5 assay, inhibition of 10 mM Ca-induced fluorescence", "assay_type": "cell-based", "conditions": "for % Inhibition of Fluorescence Cav3.1: 10 µM compound, 10 mM Ca-induced fluorescence, HEK293 cells, mean ± SEM; for IC50: FLIPR concentration-response, HEK293 Cav3.1 cells, read-out: IC50, inhibition of change in fluorescence, Cav3.1", "description": "as §1, §2, §3"}, "[5]": {"system": "hyperthermia-induced seizures", "parameters": "method as in earlier work", "conditions": "Scn1a+/- mice, ref Anderson et al., 2019, 2021a, 2021b; cited from earlier work"}, "GPR55": {"molecular_target": "T4, GPR55 (Homo sapiens, UniProt Q9Y2T6)", "T4 construct": "expressed in transfected cells; host or cells: HEK 293", "T4 sequence (Q9Y2T6 whole entry, species assumed)": "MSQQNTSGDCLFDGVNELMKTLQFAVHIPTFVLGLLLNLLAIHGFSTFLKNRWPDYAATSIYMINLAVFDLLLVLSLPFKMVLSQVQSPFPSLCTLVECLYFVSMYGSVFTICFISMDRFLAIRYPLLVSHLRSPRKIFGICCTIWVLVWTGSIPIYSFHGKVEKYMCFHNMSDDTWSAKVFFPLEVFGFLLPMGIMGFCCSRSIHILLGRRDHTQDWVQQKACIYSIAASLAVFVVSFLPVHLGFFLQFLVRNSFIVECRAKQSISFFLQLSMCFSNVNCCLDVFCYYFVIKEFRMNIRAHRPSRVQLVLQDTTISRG", "experiment": "Alphascreen ERK phosphorylation assay, antagonism of ML-186-induced ERK phosphorylation", "assay_type": "cell-based", "conditions": "in the presence of EC80 of ML-186 (0.45 µM), HEK 293 GPR55 cells", "description": "as §2"}, "[6]": {"conditions": "ref Anderson et al., cited from earlier work"}, "Cav3.1 [7]": {"molecular_target": "T3, Cav3.1", "experiment": "Whole-cell voltage-clamp electrophysiology in HEK293 Flp-In T-REx cells", "assay_type": "cell-based", "description": "All whole-cell voltage-clamp recordings from HEK293 Flp-In T-REx cells stably transfected with human Cav3.1, Cav 3.2 and Cav 3.3 were performed at room temperature. At least 24 h prior to experiments, cells were detached from flasks using trypsin/EDTA and plated into 10 cm sterile tissue culture dishes containing 10 ml of supplemented DMEM and 10–15 glass coverslips (12 mm diameter, ProScitech, QLD, Australia). Culture dishes were then kept overnight in same conditions as flasks to allow cells to adhere to coverslips. They were then transferred to a 30°C/5% CO2 incubator to inhibit cell proliferation until ready to be used for electrophysiology experiments. At this stage, channel expression was induced with tetracycline (2 μg/ml, Sigma-Aldrich) 8–24 h prior to recording cells.\nExternal recording solutions contained (in mM): 114 CsCl, 5 BaCl2, 1 MgCl2, 10 HEPES, 10 glucose, adjusted to pH 7.4 with CsOH. The internal patch pipette solution contained (in mM): 126.5 CsMeSO4, 2 MgCl2, 11 EGTA, 10 HEPES adjusted to pH 7.3 with CsOH. Internal solution was supplemented with 0.6 mM GTP and 2 mM ATP and mixed thoroughly just before use. Liquid junction potentials for the above solutions were calculated before experiments using pClamp 10 software and corrected during experiments. Compounds were prepared daily from 30 mM DMSO stocks and diluted into an external solution just before use. Compounds were then applied rapidly and locally to the cells using a custom-built gravity-driven micro-perfusion system ([Feng et al., 2003]). […] Currents were elicited from a holding potential of -100 mV and were measured by conventional whole-cell patch clamp techniques using an Axopatch 200B amplifier in combination with Clampex 9.2 software. (Molecular Devices, Sunnyvale, CA). After establishing whole cell configuration, cellular capacitance was minimised using the amplifier’s built-in analogue compensation. Series resistance was kept to <10 MΩ and was compensated to at least 85% in all experiments. All data were digitised at 10 kHz with a Digidata 1,320 interface (Molecular Devices) and filtered at 1 kHz (8-pole Bessel filter). Raw and online leak-subtracted data were both collected simultaneously, P/N4 leak subtraction was performed using opposite polarity and after the protocol sweep.\nFor tonic inhibition of T-type currents, membrane potential was stepped from −100 mV to −30 mV for 200 ms and then allowed to recover for 12 s (1 sweep). A minimum of 10 sweeps were collected under vehicle control external perfusion to allow for control peak current to equilibrate. The drug was then continuously perfused, and sweeps were recorded until no further inhibition was seen (minimum of 3 sweeps with the same amplitude). In current-voltage relation studies, the membrane potential was held at −100 mV and cells were depolarised from −70 to 50 mV in 10 mV increments. For steady-state inactivation studies, a 3.6 s conditioning pre-pulse of various magnitudes (initial holding at −110 mV) was followed by a depolarising pulse to −30 mV. Individual sweeps were separated by 12 s to permit recovery from inactivation between conditioning pulses. The duration of the test pulse was typically 20 ms, and the current amplitude obtained from each test pulse was normalised to that observed at the holding potential of −100 mV.\nThe effect of CBGVA and CBDVA (5 µM each) on slow inactivation was tested using a 2-pulse voltage protocol as described in Bladen et al., (2021). Briefly, cells expressing Cav3.1 were initially depolarised with a 200 ms test pulse from -120 mV to −30 mV to generate peak current (P1) and followed by a 10 s pre-conditioning pulse to −80 mV to reverse fast inactivation. Cells were further depolarised with another 200 ms test pulse from −120 to −30 mV (P2) (Figure 2 inset).\nTHC and CBD cause substantial frequency-dependent inhibition of Cav3.2 and Nav1.8 channels, respectively ([Ross et al., 2008]; [Bladen et al., 2021]; [Zhang and Bean, 2021]). […]"}, "[8]": {"experiment": "Plasma and brain exposure at anticonvulsant doses in mice (literature)", "assay_type": "in vivo", "conditions": "from peak plasma concentration and brain-plasma ratio"}}}
{"molecule": "C=C(C)[C@@H]1CCC(C)=C[C@H]1c1c(O)cc(CCCCC)cc1O", "note": "[CBD, cannabidiol]", "values": [{"measurement": "IC50", "setting": "Cav3.2 [1]", "value": "~1000", "unit": "nM"}, {"measurement": "IC50", "setting": "Cav3.1 [2]", "value": "~1000", "unit": "nM"}]}
{"molecule": "CCCc1cc2c(c(O)c1C(=O)O)C=CC(C)(CCC=C(C)C)O2", "note": "(stereo not shown) [CBCVA, cannabichrovarinic acid]", "values": [{"measurement": "% Inhibition of Fluorescence Cav3.3", "setting": "Cav3.3", "value": "34 ± 12", "unit": "%"}, {"measurement": "% Inhibition of Fluorescence Cav3.2", "setting": "Cav3.2 [3]; 10 µM compound, 10 mM Ca-induced fluorescence, HEK293 cells, mean ± SEM", "value": "62 ± 8", "unit": "%"}, {"measurement": "% Inhibition of Fluorescence Cav3.1", "setting": "Cav3.1 [4]", "value": "51 ± 8", "unit": "%"}, {"measurement": "effect against hyperthermia-induced seizures", "setting": "[5]", "value": "anticonvulsant"}]}
{"molecule": "CCCCCc1cc2c(c(O)c1C(=O)O)C=CC(C)(CCC=C(C)C)O2", "note": "(stereo not shown) [CBCA, cannabichromenic acid]", "values": [{"measurement": "% Inhibition of Fluorescence Cav3.3", "setting": "Cav3.3", "value": "11 ± 10", "unit": "%"}, {"measurement": "% Inhibition of Fluorescence Cav3.1", "setting": "Cav3.1 [4]", "value": "59 ± 9", "unit": "%"}, {"measurement": "effect against hyperthermia-induced seizures", "setting": "[5]", "value": "anticonvulsant"}]}
{"molecule": "CCCc1cc(O)c(C/C=C(\\C)CCC=C(C)C)c(O)c1C(=O)O", "note": "[CBGVA, cannabigerovarinic acid]", "values": [{"measurement": "% Inhibition of Fluorescence Cav3.3", "setting": "Cav3.3", "value": "35 ± 11", "unit": "%"}, {"measurement": "IC50", "setting": "Cav3.2 [3]; FLIPR concentration-response, HEK293 Cav3.2 cells, read-out: IC50, inhibition of change in fluorescence, Cav3.2", "value": 2000, "unit": "nM"}, {"measurement": "IC50", "setting": "Cav3.1 [4]", "value": 6000, "unit": "nM"}, {"measurement": "IC50", "setting": "GPR55", "value": 8000, "unit": "nM"}, {"measurement": "effect against hyperthermia-induced seizures", "setting": "[5]", "value": "anticonvulsant"}, {"measurement": "Peak plasma concentration", "setting": "[6]; anticonvulsant doses in mice, 2021b", "value": "approximately 1,200 µM"}, {"measurement": "brain-plasma ratio", "setting": "[6]; 2019", "value": 4, "unit": "%"}, {"measurement": "V0.5 of voltage dependence of Cav3.1 activation", "setting": "Cav3.1 [7]; 5 µM compound", "value": "−49.1 ± 0.5", "unit": "mV"}, {"measurement": "half-inactivation (V0.5), steady-state inactivation of Cav3.1", "setting": "Cav3.1 [7]; 5 µM compound", "value": "−82.1 ± 0.8", "unit": "mV"}, {"measurement": "Cav3.1 relative current at 50th action potential, % of first", "setting": "Cav3.1 [7]; 5 µM, 0.4 Hz stimulation", "value": "73 ± 3", "unit": "%"}, {"measurement": "Cav3.1 relative current at 50th action potential, % of first", "setting": "Cav3.1 [7]; 5 µM, 0.8 Hz stimulation", "value": "88 ± 1", "unit": "%"}, {"measurement": "inhibition of Cav3.1 peak current, second test pulse (P2), slow inactivated state", "setting": "Cav3.1 [7]; 5 µM, 2-pulse voltage protocol, after 10 s pre-conditioning pulse to −80 mV", "value": "72 ± 3", "unit": "%"}, {"measurement": "inhibition of Cav3.1 peak current, first test pulse (P1)", "setting": "Cav3.1 [7]; 5 µM, 2-pulse voltage protocol, before slow inactivation", "value": "61 ± 3", "unit": "%"}, {"measurement": "Cav3.1 relative current at 50th action potential, % of first", "setting": "Cav3.1 [7]; 5 µM, 2.0 Hz stimulation", "value": "77 ± 1", "unit": "%"}, {"measurement": "IC50", "setting": "Cav3.1 [7]; patch clamp, step −100 mV to −30 mV every 12 s, read-out: IC50, tonic inhibition of Cav3.1 current amplitude", "value": 3000, "unit": "nM"}, {"measurement": "expected brain concentration", "setting": "[8]", "value": 48, "unit": "µM"}]}
{"molecule": "CC(C)[C@H]1c2ccc(F)cc2CC[C@@]1(CCN(C)CCCc1nc2ccccc2[nH]1)OC(=O)C1CC1", "note": "[NNC550396, reference compound]", "values": [{"measurement": "% Inhibition of Fluorescence Cav3.3", "setting": "Cav3.3", "value": "89 ± 2", "unit": "%"}, {"measurement": "% Inhibition of Fluorescence Cav3.1", "setting": "Cav3.1 [4]", "value": "82 ± 8", "unit": "%"}, {"measurement": "IC50", "setting": "Cav3.1 [4]", "value": 730, "unit": "nM"}]}
